Converted amounts (≈) assume the structure as drawn.
Tests used:
[1] = tested on: Bacillus subtilis ATCC 6633; experiment: "In vitro" MIC, Bacillus subtilis; format: cell-based; settings: ATCC6633; Bacillus subtilis ATCC 6633; dextrose agar, 37° C., 20 hours; read-out: "In vitro" MIC
Method: (§1) Antimicrobial pharmacological activity (G. L. Daquet and Y. A. Chabbect, Techniques en bacteriologie (Techniques in bacteriology), vol. 3, Flammarion Medecine-Sciences, Paris, 1972, and W. B. Hugo and A. D. Rusell, Pharmaceutical Microbiology, Blackwell Scientific Publications, London (1977).
Bacillus subtilis ATCC 6633
(§2) A streak culture of each of the microorganisms is formed in tubes of antibiotics agar no. 1 and incubated for 20 hours at 37° C. A culture loop is then taken and a culture is formed in a tryptone-soya broth and incubated for 20 hours at 37° C. The resulting culture is diluted to 1/4 with Ringer's physiological solution to give a standardized suspension of 10^5 ufc/ml for each organism.
(§3) Starting from a solution of 1000 μg/ml in 0.1N NaOH, each product is diluted successively in dextrose agar (melted beforehand and kept at 50° C.) to give the following concentrations: 64-32-16-8-4-2-1-0.5-0.25-0.125 μg of derivative/ml of medium.
(§4) After this, each concentration of each product is divided up into Petri dishes of 10 cm diameter at a rate of 10 ml of medium per dish and using as many dishes as there are microorganisms to be tested.
(§5) Once the medium has cooled, the dishes are treated with the inoculations at a rate of 0.4 ml of inoculation per dish. They are spread out with a Drigalski loop and the supernatant is collected. The inoculated dishes are incubated at 37° C. for 20 hours.

[2] = tested on: Micrococcus flavus ATCC 10240; experiment: "In vitro" MIC, Micrococcus flavus; format: cell-based; settings: ATCC10240; Micrococcus flavus ATCC 10240; dextrose agar, 37° C., 20 hours; read-out: "In vitro" MIC
Method: as §1
Micrococcus flavus ATTC 10240
as §2, §3, §4, §5

Sarcina lutea ATCC 9341 = experiment: "In vitro" MIC, Sarcina lutea; format: cell-based; settings: Micrococcus luteus, ATCC9341; Sarcina lutea ATCC 9341; dextrose agar, 37° C., 20 hours; read-out: "In vitro" MIC
Method: as §1, §2, §3, §4, §5

[3] = tested on: Staphylococcus aureus ATCC 5488/23; experiment: "In vitro" MIC, Staphylococcus aureus ATCC 5488/23; format: cell-based; settings: ATCC5488; Staphylococcus aureus ATCC 5488/23; dextrose agar, 37° C., 20 hours; read-out: "In vitro" MIC
Method: as §1
Staphylococcus aureus ATCC 5488/23
as §2, §3, §4, §5

[4] = tested on: Staphylococcus aureus ATCC 25178; experiment: "In vitro" MIC, Staphylococcus aureus ATCC 25178; format: cell-based; settings: ATCC25178; Staphylococcus aureus ATCC 25178; dextrose agar, 37° C., 20 hours; read-out: "In vitro" MIC
Method: as §1
Staphylococcus aureus ATCC 25178
as §2, §3, §4, §5

[5] = tested on: Streptococcus faecalis ATCC 10541; experiment: "In vitro" MIC, Streptococcus faecalis; format: cell-based; settings: Enterococcus faecalis, ATCC10541; Streptococcus faecalis ATCC 10541; dextrose agar, 37° C., 20 hours; read-out: "In vitro" MIC
Method: as §1
Streptococcus faecalis ATCC 10541
as §2, §3, §4, §5

[6] = tested on: Enterobacter aerogenes ATCC 15038; experiment: "In vitro" MIC, Enterobacter aerogenes; format: cell-based; settings: Klebsiella aerogenes, ATCC15038; Enterobacter aerogenes ATCC 15038; dextrose agar, 37° C., 20 hours; read-out: "In vitro" MIC
Method: as §1
Enterobacter aerogenes ATCC 15038
as §2, §3, §4, §5

[7] = tested on: Enterobacter cloacae CHSP-20; experiment: "In vitro" MIC, Enterobacter cloacae; format: cell-based; settings: CHSP20; Enterobacter cloacae CHSP-20; dextrose agar, 37° C., 20 hours; read-out: "In vitro" MIC
Method: as §1
Enterobacter cloacae CHSP-20
as §2, §3, §4, §5

[8] = tested on: Escherichia coli ATCC 10536; experiment: "In vitro" MIC, Escherichia coli ATCC 10536; format: cell-based; settings: ATCC10536; Escherichia coli ATCC 10536; dextrose agar, 37° C., 20 hours; read-out: "In vitro" MIC
Method: as §1
Escherichia coli ATCC 10536
as §2, §3, §4, §5

Escherichia coli R-1513 = experiment: "In vitro" MIC, Escherichia coli R-1513; format: cell-based; settings: R1513; Escherichia coli R-1513; dextrose agar, 37° C., 20 hours; read-out: "In vitro" MIC
Method: as §1, §2, §3, §4, §5

[9] = tested on: Klebsiella pneumoniae ATCC 10031; experiment: "In vitro" MIC, Klebsiella pneumoniae; format: cell-based; settings: ATCC10031; Klebsiella pneumoniae ATCC 10031; dextrose agar, 37° C., 20 hours; read-out: "In vitro" MIC
Method: as §1
Klebsiella pneumoniae ATCC 10031
as §2, §3, §4, §5

[10] = tested on: Citrobacter freundii ATCC 11606; experiment: "In vitro" MIC, Citrobacter freundii; format: cell-based; settings: ATCC11606; Citrobacter freundii ATCC 11606; dextrose agar, 37° C., 20 hours; read-out: "In vitro" MIC
Method: as §1
Citrobacter freundii ATCC 11606
as §2, §3, §4, §5

[11] = tested on: Proteus mirabilis ATCC 4675; experiment: "In vitro" MIC, Proteus mirabilis; format: cell-based; settings: ATCC4675; Proteus mirabilis ATCC 4675; dextrose agar, 37° C., 20 hours; read-out: "In vitro" MIC
Method: as §1
Proteus mirabilis ATCC 4675
as §2, §3, §4, §5

Proteus morganii CHSP-16 = experiment: "In vitro" MIC, Proteus morganii; format: cell-based; settings: Morganella morganii, CHSP16; Proteus morganii CHSP-16; dextrose agar, 37° C., 20 hours; read-out: "In vitro" MIC
Method: as §1, §2, §3, §4, §5

[12] = tested on: Pseudomonas aeruginosa 25115; experiment: "In vitro" MIC, Pseudomonas aeruginosa 25115; format: cell-based; settings: Pseudomonas aeruginosa 25115; dextrose agar, 37° C., 20 hours; read-out: "In vitro" MIC
Method: as §1
Pseudomonas aeruginosa 25115
as §2, §3, §4, §5

[13] = tested on: Pseudomonas aeruginosa ADSA 47; experiment: "In vitro" MIC, Pseudomonas aeruginosa ADSA 47; format: cell-based; settings: ADSA47; Pseudomonas aeruginosa ADSA 47; dextrose agar, 37° C., 20 hours; read-out: "In vitro" MIC
Method: as §1
Pseudomonas aeruginosa ADSA 47
as §2, §3, §4, §5

[14] = tested on: Salmonella typhimurium AMES 98; experiment: "In vitro" MIC, Salmonella typhimurium AMES 98; format: cell-based; settings: Salmonella enterica; Salmonella typhimurium AMES 98; dextrose agar, 37° C., 20 hours; read-out: "In vitro" MIC
Method: as §1
Salmonella typhimurium AMES 98
as §2, §3, §4, §5

[15] = tested on: Salmonella typhimurium AMES 100; experiment: "In vitro" MIC, Salmonella typhimurium AMES 100; format: cell-based; settings: Salmonella enterica; Salmonella typhimurium AMES 100; dextrose agar, 37° C., 20 hours; read-out: "In vitro" MIC
Method: as §1
Salmonella typhimurium AMES 100
as §2, §3, §4, §5

[16] = tested on: Serratia marcescens ATTC 13880; experiment: "In vitro" MIC, Serratia marcescens; format: cell-based; settings: ATTC13880; Serratia marcescens ATTC 13880; dextrose agar, 37° C., 20 hours; read-out: "In vitro" MIC
Method: as §1
Serratia marcescens ATTC 13880
as §2, §3, §4, §5

Shigella flexnerii = experiment: "In vitro" MIC, Shigella flexnerii; format: cell-based; settings: 20 h, read-out: "In vitro" MIC
Method: as §1, §2, §3, §4, §5

Acute toxicity to mice = settings: mouse, in vivo, ip, suspension in 5% gum arabic, mortality over 7 days
Method: The experimental animals used to determine this toxicity were albino mice of the C.F.L.P. strain and of both sexes, weighing between 19 and 25 grams. After an 18-hour fasting period with water "ad libitum", the derivatives forming the subject of the present invention are administered intraperitoneally as a suspension in 5% gum arabic. The volume of suspension administered was 0.4 ml/20 grams (20 ml/kg) in all cases, the concentration of the suspension being changed according to the dose administered.
One hour after administration of the derivatives, the animals are given a standard Panlab rat-mouse food. The mortality was observed over a period of 7 days. Differences in mortality between the sexes were not observed with any of the products.

[17] = tested on: Enterobacteriaceae (Pseudomonas aeruginosa); experiment: "In vitro" antimicrobial activity compared with nalidixic acid, Enterobacteriaceae (Pseudomonas aeruginosa); format: cell-based
Method: as §1, §2, §3, §4, §5

Gram-positive cocci = experiment: "In vitro" antimicrobial activity compared with nalidixic acid, Gram-positive cocci; format: cell-based
Method: as §1, §2, §3, §4, §5

Compound | MIC [1] [µg/mL] | MIC [2] [µg/mL] | MIC (Sarcina lutea ATCC 9341) [µg/mL] | MIC [3] [µg/mL] | MIC [4] [µg/mL] | MIC [5] [µg/mL] | MIC [6] [µg/mL] | MIC [7] [µg/mL] | MIC [8] [µg/mL] | MIC (Escherichia coli R-1513) [µg/mL] | MIC [9] [µg/mL] | MIC [10] [µg/mL] | MIC [11] [µg/mL] | MIC (Proteus morganii CHSP-16) [µg/mL] | MIC [12] [µg/mL] | MIC [13] [µg/mL] | MIC [14] [µg/mL] | MIC [15] [µg/mL] | MIC [16] [µg/mL] | MIC (Shigella flexnerii) [µg/mL] | also measured
C=Cn1cc(C(=O)O)c(=O)c2cc(F)c(-n3cccc3)cc21 [Example 3, 6-fluoro-7-(pyrrol-1-yl)-1-vinyl-4-oxo-1,4-dihydroquinoline-3-carboxylic acid] | ≤ 0.062 | 4 (≈ 13.4 µM) | 8 (≈ 26.8 µM) | 0.5 (≈ 1.68 µM) | 0.5 (≈ 1.68 µM) | 16 (≈ 53.6 µM) | 1 (≈ 3.35 µM) | 1 (≈ 3.35 µM) | 0.125 (≈ 0.419 µM) | 1 (≈ 3.35 µM) | 0.5 (≈ 1.68 µM) | 1 (≈ 3.35 µM) | 2 (≈ 6.71 µM) | 2 (≈ 6.71 µM) | 4 (≈ 13.4 µM) | 8 (≈ 26.8 µM) | ≤ 0.062 | 0.5 (≈ 1.68 µM) | 1 (≈ 3.35 µM) | 1 (≈ 3.35 µM) | LD50 at 168 h (Acute toxicity to mice): > 1600 mg/kg; "in vitro" activity compared with nalidixic acid [17]: greater "in vitro" activity than nalidixic acid; "in vitro" activity compared with nalidixic acid (Gram-positive cocci): greater "in vitro" activity than nalidixic acid
O=C(O)c1cn(CCO)c2cc(-n3cccc3)c(F)cc2c1=O [Example 2, 6-fluoro-7-(pyrrol-1-yl)-1-(2-hydroxyethyl)-4-oxo-1,4-dihydroquinoline-3-carboxylic acid] | ≤ 0.062 | 16 (≈ 50.6 µM) | 16 (≈ 50.6 µM) | 0.5 (≈ 1.58 µM) | 0.5 (≈ 1.58 µM) | 1 (≈ 3.16 µM) | 2 (≈ 6.32 µM) | 1 (≈ 3.16 µM) | 0.125 (≈ 0.395 µM) | 1 (≈ 3.16 µM) | 0.062 (≈ 0.196 µM) | 1 (≈ 3.16 µM) | 1 (≈ 3.16 µM) | 1 (≈ 3.16 µM) | 16 (≈ 50.6 µM) | ≥ 32 | 0.25 (≈ 0.79 µM) | 0.25 (≈ 0.79 µM) | 1 (≈ 3.16 µM) | 1 (≈ 3.16 µM) | LD50 at 168 h (Acute toxicity to mice): > 1600 mg/kg; "in vitro" activity compared with nalidixic acid [17]: greater "in vitro" activity than nalidixic acid; "in vitro" activity compared with nalidixic acid (Gram-positive cocci): greater "in vitro" activity than nalidixic acid
CNn1cc(C(=O)O)c(=O)c2cc(F)c(-n3cccc3)cc21 [Example 7, 6-fluoro-7-(pyrrol-1-yl)-1-methylamino-4-oxo-1,4-dihydroquinoline-3-carboxylic acid] | ≤ 0.062 | 4 (≈ 13.3 µM) | 4 (≈ 13.3 µM) | 0.25 (≈ 0.83 µM) | 0.25 (≈ 0.83 µM) | 4 (≈ 13.3 µM) | 1 (≈ 3.32 µM) | 1 (≈ 3.32 µM) | ≤ 0.062 | 0.5 (≈ 1.66 µM) | 0.125 (≈ 0.415 µM) | 1 (≈ 3.32 µM) | 2 (≈ 6.64 µM) | 1 (≈ 3.32 µM) | 8 (≈ 26.6 µM) | 16 (≈ 53.1 µM) | 0.125 (≈ 0.415 µM) | 0.25 (≈ 0.83 µM) | 1 (≈ 3.32 µM) | 1 (≈ 3.32 µM) | LD50 at 168 h (Acute toxicity to mice): > 1600 mg/kg; "in vitro" activity compared with nalidixic acid [17]: greater "in vitro" activity than nalidixic acid; "in vitro" activity compared with nalidixic acid (Gram-positive cocci): greater "in vitro" activity than nalidixic acid

— patent US4727080A, “1-substituted derivatives of 6-fluoro-7-(pyrrol-1-yl)-1,4-dihydro-4-oxoquinoline-3-carboxylic acid, their preparation and their application as drugs” (Provesan S.A., priority 1984, dated 1988)
